Measurements as given in article PMC9399058, “Preclinical evaluation of FAP-2286 for fibroblast activation protein targeted radionuclide imaging and therapy” (European Journal of Nuclear Medicine and Molecular Imaging, 2022).
Where two headings read alike, the source gives them in different places.

Legend:
[1] = SPECT/CT biodistribution of 111In-labeled tracers in HEK-FAP tumor-bearing mice; type: in vivo, mouse; details: mouse; for tissue uptake at 1 h / tissue uptake at 3 h / tissue uptake at 6 h / tissue uptake at 24 h / tissue uptake at 48 h: in vivo
Protocol: (§1) HEK-FAP cell line was generated using the vector pTAR to insert FAP complementary DNA by recombinase-mediated cassette exchange into the pre-tagged HEK293 cells (InSCREENeX). For in vivo HEK-FAP studies, female nude or SCID beige mice (Charles River Laboratories) were subcutaneously implanted with 5 × 10^6 HEK-FAP cells in 150 µL serum-free media:Matrigel (1:1) (Corning). For the patient-derived xenograft (PDX) efficacy study, female NMRI nu/nu mice (Janvier Labs) were subcutaneously implanted with Sarc4809 fragments (Experimental Pharmacology & Oncology Berlin-Buch). All animal experiments were carried out under licenses approved by the respective authorities and in compliance with guidelines on animal welfare.
(§2) Thirty megabecquerels (30 MBq/nmol) ^111In-FAP-2286 (n = 9) or ^111In-FAPI-04 (n = 6) was injected intravenously (IV) into HEK-FAP tumor-bearing mice and the distribution of the radiotracers was assessed using the NanoSPECT/computed tomography (CT) system (Mediso). For PET imaging, 10 MBq of ^68Ga-FAP-2286 or ^68Ga-FAPI-46 (10 MBq/nmol) was given IV into HEK-FAP tumor-bearing mice (n = 3) followed by PET/CT analysis using the nanoScan PET/CT system (Mediso). For SPECT imaging of ^177Lu-labeled FAP-2286 or ^177Lu-labeled FAPI-46, 30 MBq was administered IV (30 MBq/nmol; n = 3) and the distribution of the radiotracers was assessed using the nanoScan SPECT/CT system (Mediso).
(§3) The animal studies were conducted in different laboratories. ^111In-Imaging and efficacy studies using the HEK-FAP model and different doses of ^177Lu-FAP-2286 as well as the Sarc4809 PDX efficacy study took place at Berlin Experimental Imaging Center (BERIC, Germany). The Sarc4809 model was originally derived from a primary lesion of undifferentiated pleomorphic sarcoma. These studies were performed in either female swiss nude (Charles River Laboratories, France – ^111In-Imaging), NMRI nude (Janvier Labs, France – PDX efficacy study) or SCID beige mice (Charles River Laboratories, Germany - ^111In-Imaging). ^68Ga-Imaging and comparative studies with ^177Lu labeled FAP-2286 and FAPI-46 were performed at Minerva Imaging ApS, Denmark using female athymic nude mice (Charles River Laboratories, Germany). For all experiments animals were ordered with an age of approximately 6 weeks. Animals were allowed an acclimatization period of at least one week prior to inoculation. Animals were housed in an animal room with 12 hours light and 12 hours darkness with free access to food and water. A maximum number of 5 animals were housed in the same cage, cages were equipped with nesting material and plastic or paper houses for hiding. Each cage was labeled with study ID, group and animal numbers and test compound. For efficacy studies animals were randomized according to tumor size. Animals were checked daily for any signs of illness or abnormal behavior. Main humane endpoints were defined as tumor volumes > 1500 mm^3, tumor burden > 10% of animal weight, body weight loss >15% and tumor ulceration. When reaching one of these criteria the animal was sacrificed by cervical dislocation. All animal experiments were approved either by the Regional Office for Health and Social Affairs Berlin (LAGeSo), Germany or the National Animal Experiments Inspectorate under the Ministry of Environment and Food of Denmark.
(§4) Imaging and image analysis were performed as described. During the scan, mice were kept under isoflurane anesthesia, and body temperature was maintained under warm air. The following acquisition parameters were used for the respective imaging modality.
(§5) For quantification, VivoQuant (InviCRO) was used to draw regions of interest (ROIs) in relevant tissues, with a ROI drawn over the left ventricle of the heart to serve as blood pool surrogate. […]

[2] = Plasma stability assay, mouse plasma; type: in vitro ADME; details: 24 h at 37 °C
Protocol: FAP-2286 was incubated in human or mouse plasma at 37 °C for 24 h. Compound concentration was measured using HPLC–MS/MS (Agilent Technologies) and percent concentration remaining was calculated.
FAP-2286 was incubated in 50 µL of plasma with 3.8% sodium citrate as anticoagulant at a concentration of 10 µM. After 1, 2, 4, and 24 hours incubation at 37°C a suitable internal standard was added. FAP-2286 with plasma proteins were precipitated using 150 µL of a precipitation agent consisting of 77% 0.1 M zinc sulfate solution and 23% acetonitrile. Precipitation was carried out on ice for 30 minutes. […]
A nonincubated plasma sample spiked with 10 µM sample concentration was prepared in the same way and was used as the reference. […] The samples were analyzed using an Agilent 1290 UHPLC system coupled to an Agilent 6530 QTOF mass spectrometer.
For the quantitative data analysis, the Agilent Quantitative Analysis B.08.00 software (RRID:SCR_015040) was used. […] The concentration of the compound was determined by external matrix calibration using 6 calibration samples (1, 2.5, 5, 7.5, 10, and 12.5 µM). […] Carryover was determined by analyzing the blank sample directly after the highest calibration sample and comparing the determined peak areas. Recovery was calculated as the ratio between the spiked concentration of the recovery sample and the concentration calculated from the peak area of this sample.

HEK-FAP xenografts = assay: SPECT/CT biodistribution and tumor dosimetry of 177Lu-labeled tracers in HEK-FAP tumor-bearing mice; type: in vivo, mouse; details: 177Lu-labeled, HEK-FAP tumors
Protocol: as §1, §2, §3, §4, §5

[3] = PET/CT biodistribution of 68Ga-labeled tracers in HEK-FAP tumor-bearing mice; details: mouse, in vivo, 10 MBq IV, n=3
Protocol: as §1
as §2, with “(Mediso). […]” for “(Mediso). For PET imaging, 10 MBq of ^68Ga-FAP-2286 or ^68Ga-FAPI-46 (10 MBq/nmol) was given IV into HEK-FAP tumor-bearing mice (n = 3) followed by PET/CT analysis using the nanoScan PET/CT system (Mediso).”, “(Mediso). […]” for “(Mediso).”
as §5

neoplastic lesions = system: neoplastic lesions; parameters: method as in PMID 34168013; details: patients with pancreatic, breast, ovarian, or colorectal carcinomas ref 51; cited from earlier work

Compound `CCCCCC(=O)N[C@H]1CSCc2cc(CSCCNC(=O)CN3CCN(CC(=O)O)CCN(CC(=O)O)CCN(CC(=O)O)CC3)cc(c2)CSC[C@@H](C(=O)O)NC(=O)[C@H](Cc2ccccc2)NC(=O)[C@H](CCC(N)=O)NC(=O)[C@H]([C@@H](C)O)NC(=O)[C@@H]2CCCN2C(=O)[C@@H]2CCCN2C1=O` [^111In-FAP-2286, metal not drawn] has a tissue to tissue ratio at 1 h ([1]; female, tumor and kidney, iv, 30 MBq, total radioactivity, tumor-to-kidney, 1 h p.i., read-out: T/K ratio (mean ± SD)) of 3 ± 1.3, a tissue to tissue ratio at 3 h ([1]; female, tumor and kidney, iv, 30 MBq, total radioactivity, tumor-to-kidney, 3 h p.i., read-out: T/K ratio (mean ± SD)) of 4.6 ± 1.9 and a tissue to tissue ratio at 6 h ([1]; female, tumor and kidney, iv, 30 MBq, total radioactivity, tumor-to-kidney, 6 h p.i., read-out: T/K ratio (mean ± SD)) of 5 ± 2.8. The tissue to tissue ratio at 24 h ([1]; female, tumor and kidney, iv, 30 MBq, total radioactivity, tumor-to-kidney, 24 h p.i., read-out: T/K ratio (mean ± SD)) was 5.9 ± 3.3, the tissue to tissue ratio at 48 h ([1]; female, tumor and kidney, iv, 30 MBq, total radioactivity, tumor-to-kidney, 48 h p.i., read-out: T/K ratio (mean ± SD)) was 7.5 ± 4.8 and the tissue uptake at 1 h ([1]; 1 h p.i., read-out: Salivary Glands %ID/g (mean ± SD)) was 0.6 ± 0.4 %ID/g. The tissue uptake at 3 h ([1]; 3 h p.i., read-out: Salivary Glands %ID/g (mean ± SD)) was 0.2 ± 0.1 %ID/g, the tissue uptake at 6 h ([1]; 6 h p.i., read-out: Salivary Glands %ID/g (mean ± SD)) was 0.2 ± 0.2 %ID/g and the tissue uptake at 1 h ([1]; heart, 1 h p.i., read-out: Blood Pool Surrogate %ID/g (mean ± SD)) was 0.4 ± 0.1 %ID/g. The tissue uptake at 3 h ([1]; heart, 3 h p.i., read-out: Blood Pool Surrogate %ID/g (mean ± SD)) was 0.1 ± 0.1 %ID/g, the tissue uptake at 6 h ([1]; heart, 6 h p.i., read-out: Blood Pool Surrogate %ID/g (mean ± SD)) was 0.1 %ID/g and the tissue uptake at 1 h ([1]; iv, 1 h p.i., 30 MBq IV, HEK-FAP mice, n=9, read-out: Tumor %ID/g (mean ± SD)) was 11.1 ± 4.3 %ID/g. The tissue uptake at 1 h ([1]; iv, 1 h p.i., 30 MBq IV, HEK-FAP mice, read-out: Kidney %ID/g (mean ± SD)) was 3.9 ± 1 %ID/g, the tissue uptake at 1 h ([1]; iv, 1 h p.i., 30 MBq IV, HEK-FAP mice, read-out: Liver %ID/g (mean ± SD)) was 0.3 ± 0.1 %ID/g and the tissue uptake at 3 h ([1]; iv, 3 h p.i., 30 MBq IV, HEK-FAP mice, read-out: Kidney %ID/g (mean ± SD)) was 2.5 ± 0.4 %ID/g. For the same compound, the tissue uptake at 3 h ([1]; iv, 3 h p.i., 30 MBq IV, HEK-FAP mice, read-out: Liver %ID/g (mean ± SD)) was 0.2 ± 0.1 %ID/g, the tissue uptake at 6 h ([1]; iv, 6 h p.i., 30 MBq IV, HEK-FAP mice, n=9, read-out: Tumor %ID/g (mean ± SD)) was 11.4 ± 6.6 %ID/g and the tissue uptake at 6 h ([1]; iv, 6 h p.i., 30 MBq IV, HEK-FAP mice, read-out: Kidney %ID/g (mean ± SD)) was 2.2 ± 0.3 %ID/g. The tissue uptake at 6 h ([1]; iv, 6 h p.i., 30 MBq IV, HEK-FAP mice, read-out: Liver %ID/g (mean ± SD)) was 0.1 %ID/g, the tissue uptake at 24 h ([1]; iv, 24 h p.i., 30 MBq IV, HEK-FAP mice, n=9, read-out: Tumor %ID/g (mean ± SD)) was 9.7 ± 5.3 %ID/g and the tissue uptake at 24 h ([1]; iv, 24 h p.i., 30 MBq IV, HEK-FAP mice, read-out: Kidney %ID/g (mean ± SD)) was 1.6 ± 0.2 %ID/g. It also gave a tissue uptake at 24 h ([1]; iv, 24 h p.i., 30 MBq IV, HEK-FAP mice, read-out: Liver %ID/g (mean ± SD)) of 0.1 %ID/g, a tissue uptake at 48 h ([1]; iv, 48 h p.i., 30 MBq IV, HEK-FAP mice, n=9, read-out: Tumor %ID/g (mean ± SD)) of 9.1 ± 5 %ID/g and a tissue uptake at 48 h ([1]; iv, 48 h p.i., 30 MBq IV, HEK-FAP mice, read-out: Kidney %ID/g (mean ± SD)) of 1.3 ± 0.2 %ID/g. The tissue uptake at 48 h ([1]; iv, 48 h p.i., 30 MBq IV, HEK-FAP mice, read-out: Liver %ID/g (mean ± SD)) was 0.1 %ID/g, the tissue uptake at 1 h ([1]; non-tumor bearing shoulder, 1 h p.i., read-out: Shoulder %ID/g (mean ± SD)) was 1.2 ± 0.6 %ID/g and the tissue uptake at 3 h ([1]; non-tumor bearing shoulder, 3 h p.i., read-out: Shoulder %ID/g (mean ± SD)) was 0.4 ± 0.1 %ID/g. For the same compound, the tissue uptake at 6 h ([1]; non-tumor bearing shoulder, 6 h p.i., read-out: Shoulder %ID/g (mean ± SD)) was 0.1 ± 0.1 %ID/g, the tissue uptake at 24 h ([1]; non-tumor bearing shoulder, 24 h p.i., read-out: Shoulder %ID/g (mean ± SD)) was 0.1 %ID/g and the tissue uptake at 48 h ([1]; non-tumor bearing shoulder, 48 h p.i., read-out: Shoulder %ID/g (mean ± SD)) was 0.1 %ID/g.
For `CCCCCC(=O)N[C@H]1CSCc2cc(CSCCNC(=O)CN3CCN(CC(=O)O)CCN(CC(=O)O)CCN(CC(=O)O)CC3)cc(c2)CSC[C@@H](C(=O)O)NC(=O)[C@H](Cc2ccccc2)NC(=O)[C@H](CCC(N)=O)NC(=O)[C@H]([C@@H](C)O)NC(=O)[C@@H]2CCCN2C(=O)[C@@H]2CCCN2C1=O` [FAP-2286], the “percent retained in mouse plasma” value [2] was 85%, the “fold higher TIAC compared to FAPI-46” value (HEK-FAP xenografts) was 12 fold and the “fold higher absorbed dose delivered to the tumors compared to FAPI-46” value (HEK-FAP xenografts) was 9 fold.
For `CCCCCC(=O)N[C@H]1CSCc2cc(CSCCNC(=O)CN3CCN(CC(=O)O)CCN(CC(=O)O)CCN(CC(=O)O)CC3)cc(c2)CSC[C@@H](C(=O)O)NC(=O)[C@H](Cc2ccccc2)NC(=O)[C@H](CCC(N)=O)NC(=O)[C@H]([C@@H](C)O)NC(=O)[C@@H]2CCCN2C(=O)[C@@H]2CCCN2C1=O` [^68Ga-FAP-2286, metal not drawn], the tissue uptake at 0.5 h ([3]; 0.5 h after administration) is listed as 9.8 %ID/g, the tissue uptake at 3 h ([3]; 3 h after injection) is listed as 10.8 %ID/g and the “PET/CT uptake in patients” value (neoplastic lesions) is listed as “significant uptake in neoplastic lesions and low presence in normal tissues”.
